In patent US20070014739A1, “Compositions and methods for controlling biofilms and bacterial infections” (priority 2005, published 2007):

Legend:
[1] = system: P. aeruginosa; assay: Biofilm inhibition, comparison of scaffold modifications; assay type: cell-based; settings: effect of modifying corosolic acid at C-19, or at C-3 and C-20
[2] = system: P. aeruginosa strain PAO1; assay: Rotating disk reactor (RDR) biofilm test with and without tobramycin, culturable bacteria; assay type: cell-based, Pseudomonas aeruginosa; settings: test compound 100 μg/ml 24 h, average of three days
Protocol: Biofilm formation of P. aeruginosa was evaluated using a standardized biofilm method with a rotating disk reactor (RDR). This method provides a model resembling the formation of biofilms in cystic fibrosis patients. The rotating disk reactor consists of a one-liter glass beaker fitted with a drain spout. The bottom of the vessel contains a magnetically driven rotor with six 1.27 cm diameter coupons constructed from polystyrene. The rotor consists of a star-head magnetic stir bar upon which a disk was affixed to hold the coupons. The vessel with the stir bar was placed on a stir plate and rotated to provide fluid shear. A nutrient solution (AB Trace Medium with 0.3 mM glucose, see Table 3 below for composition) was added through a stopper in the top of the reactor at a flow rate of 5 ml/min. The reactor volume was approximately 180 ml and varied slightly between reactors depending on the placement of the drain spout and the rotational speed of the rotor. At a volume of 180 ml, the residence time of the reactors was 36 minutes. The reactors were operated at room temperature (c.a. 26° C.).
For each test, two RDRs were operated in parallel with one receiving test compound and the other serving as an untreated control. The RDRs were sterilized by autoclave, then filled with sterile medium and inoculated with P. aeruginosa strain PAO1. The reactors were then incubated at room temperature in batch mode (no medium flow) for a period of 24 hours, after which the flow was initiated for a further 24 hour incubation. Test compounds were dissolved in 10 ml ethanol to achieve a concentration of 1.8 mg/ml. After the 48 hours of biofilm development described above, the 10 ml of ethanol containing the test compounds were added to the reactor to achieve a final concentration of approximately 50, 100, or 200 μg/ml. Control reactors received 10 ml of ethanol. The reactors were then incubated for an additional 24 hours in batch (no flow) mode. After this incubation period, the six coupons were removed from each reactor and placed in 12-well polystyrene tissue culture plates with wells containing either 2 ml of a 100 μg/ml tobramycin solution or 2 ml of phosphate-buffered saline (PBS). These plates were incubated at room temperature for two hours. The coupons were then rinsed by three transfers to plates containing 2 ml of fresh PBS. For each two RDR reactors run in parallel, four sets of three coupons were obtained: one set with no test compound treatment and no tobramycin treatment, one set with no test compound treatment and tobramycin treatment, one set treated with a test compound treatment and no tobramycin treatment, and one set treated with a test compound treatment and tobramycin. After rinsing, one coupon of each set of three was stained with a LIVE/DEAD® BacLight™ Bacterial Viability Kit (Molecular Probes, Eugene Oreg.) and imaged using epifluorescent microscopy. The remaining two coupons were placed in 10 ml of PBS and sonicated for five minutes to remove and disperse biofilm cells. The resulting bacterial suspensions were then serially diluted in PBS and plated on tryptic soy agar plates for enumeration of culturable bacteria. The plates were incubated for 24 hours at 37° C. before colony forming units (CFU) were determined.
The results are averages from experiments performed on three separate days for each test compound. The values reported are as loglo CFU.

[3] = Bladder concentrations in rats (pharmacokinetic study); settings: rat, in vivo; rats, 50 mg/kg oral single bolus in 50% Labrasol, at 24 hours; read-out: Concentrations in the bladder
Protocol: Pharmacokinetic studies of asiatic acid and madecassic acid in rats were performed separately. Asiatic acid and madecassic acid were evaluated at 50 mg/kg (oral). Two animals were assigned to the each group. Prior to dosing, a baseline blood sample was taken from each animal. At time zero for asiatic acid and madecassic acid, a single bolus dose in 50% Labrasol (Gattefosse) was given to each animal. Bladders were analyzed at 24 hours. Concentrations of both asiatic acid and madecassic acid in the bladder were approximately 30 μg/g at 24 hours.

[4] = system: E. coli laboratory strain JM109; assay: Inhibition of biofilm formation, crystal violet, 96 well plates; assay type: cell-based; settings: Escherichia coli, JM 109, compared to the controls, read-out: inhibited biofilm formation of the JM109 strain
Protocol: Biofilm inhibition experiments were conducted using an assay adapted from the reported protocol described in Pratt and Kolter, 1998, Molecular Microbiology, 30: 285-293; Li et al., 2001, J. Bacteriol., 183: 897-908. E. coli clinical strain UT189 was grown in LB in 96 well plates at room temperature for one or two days without shaking. E. coli laboratory strain JM109 was grown in LB plus 0.2% glucose in 96 well plates at room temperature for one day without shaking. To quantify the biofilm mass, the suspension culture was poured out and the biofilm was washed three times with water. The biofilm was stained with 0.1% crystal violet for 20 minutes. The plates were then washed three times with water. OD reading at 540 nm was measured to quantify the biofilm mass at the bottom of the wells. Then 95% ethanol was added to dissolve the dye at the bottom and on the wall and the OD reading at 540 nm was measured to quantify the total biofilm mass. To study the overall effect of the compounds (3.6 mg/mL in 100% ethanol as stock solution), it was added with the inoculation and a time course of biofilm mass was measured. Appropriate amounts of 100% ethanol were added to each sample to eliminate the effect of solvent. Each condition had 3-4 replicates on each plate and was performed over multiple days.

[5] = system: S. aureus; settings: U.S. Pat. No. 4,606,911; cited from earlier work
[6] = system: E. coli; settings: U.S. Pat. No. 4,606,911; cited from earlier work
[7] = system: S. salivaris; settings: U.S. Pat. No. 4,606,911; cited from earlier work
[8] = system: S. mutans; settings: U.S. Pat. No. 4,606,911; cited from earlier work
[9] = system: P. aeruginosa; settings: U.S. Pat. No. 4,606,911; cited from earlier work
[10] = system: E. coli UT189[pCOMGFP]; assay: Biofilm pods (IBCs) in bladders of infected mice, intravesical compound, confocal microscopy; assay type: in vivo, Escherichia coli; settings: experiment 1: C3H/HeN mice, 40 μg/ml intravesical with 30 min pre-incubation, 10^8 CFU, five hours; vs controls
Protocol: The procedures in this example has been previously reported by Justice, S. et al. Differentiation and development pathways of uropathogenic Escherichia coli in urinary tract pathogenesis. PNAS, 2004, 101(5), p. 1333-1338. Briefly, E. coli UT189[pCOMGFP] was prepared after retrieval from frozen stocks by inoculating appropriately in LB medium statically for approximately 20 hours. Cells were harvested and suspended in 1 ml of PBS. Cells were diluted appropriately to achieve approximately a 10^8 CFU or 10^7 CFU input into C3H/HeN mice (2 mice per group).
Mice were deprived of water for approximately two hours. In experiment 1, all mice were anesthetized with 0.15 cc ketamine cocktail. In experiment 2, all mice were anesthetized with isofluorane. In experiment 1, urine was dispelled from the bladders and approximately 40 μg/ml of test compound or an appropriate amount of ethanol as control was introduced into the bladders via catheterization of the urethra using a tubing coated tuberculin syringe. 30 minutes was allowed to elapse. In experiment 2, bladders were not pre-incubated with test compounds. Bladders were then expelled and an inoculum of 10^8 CFU (Experiment 1) or 10^7 CFU (Experiment 2) of E. coli containing 40 μg/ml of test compound or equivalent amount of ethanol as controls were introduced into the bladders as indicated above.
In experiment 1 five hours elapsed and in experiment 2 six hours elapsed, and then mice were anesthetized and sacrificed appropriately. The bladders were removed, bisected, stretched, and fixed in 3% paraformaldehyde for 1 hour at room temperature. Bladders were then permeabilized in 0.01% Triton/PBS for 10 minutes and counter stained with TOPRO3 (Molecular Probes) for 10 minutes for visualization by confocal microscopy. Bladders were mounted on Prolong antifade (Molecular Probes).

[11] = system: E. coli clinical strain UT189 against bladder epithelial cells; assay: Binding to and invasion of bladder epithelial cells by E. coli; assay type: cell-based; settings: 40 μg/ml, 60 minutes; separate experiments (n=4 to 7)
Protocol: The effect of test compounds on bacterial invasion of E. coli clinical strain UT189 was studied as described in Elsinghorst, et al. 1994, Methods Enzymol, 236:405-420; and Martinez et al., 2000, EMBO J., 19:2803-2812. Epithelial bladder cells were grown in plates. Asiatic acid, corosolic acid, or ursolic acid were added at concentrations of 10 μg/ml, 20 μg/ml, or 40 μg/ml to bacteria and epithelial cells for approximately 5, 15, 30, or 60 minutes with approximately 10^7 CFU of E. coli. Binding was assessed at time zero and invasion was assessed at approximately 5, 15, 30, or 60 minutes from completing the mixture of compound, bacteria, and epithelial cells. As a control ethanol was added to cells to a final concentration of 0.1%. The effect of bacterial viability and bacterial adherence during the infection period was evaluated according to the methods described in Martinez et al., 2000, EMBO J., 19:2803-2812.

C[C@@H]1[C@H]2C3=CCC4[C@@]5(C)CC[C@H](OC(=O)/C=C\c6ccc(O)cc6)C(C)(C)C5CC[C@@]4(C)[C@]3(C)CC[C@@]2(C(=O)O)CC[C@]1(C)O (stereo partly drawn) [3-[4-Hydroxycinnamoyl (cis-)], 20-hydroxy-ursolic acid]
biofilm inhibition against P. aeruginosa relative to corosolic acid [1]: increases biofilm inhibition

C[C@H]1[C@H](C)CC[C@]2(C(=O)O)CC[C@]3(C)C(=CC[C@@H]4[C@@]5(C)C[C@@H](O)[C@H](O)[C@@](C)(CO)[C@@H]5[C@H](O)C[C@]43C)[C@H]12 [Madecassic acid]
CFU, Test Compound ([2]; no tobramycin): 7.5 loglo CFU | CFU, Tobramycin and Test Compound ([2]; then tobramycin 100 μg/ml 2 h): 5.5 loglo CFU | concentration at 24 h [3]: ~30000 ng/g | inhibition at 5 µg/mL ([4]; 5 ug/ml): ~60% | inhibition at 10 µg/mL ([4]; 10 ug/ml): ~75%

CC1(C)CC[C@]2(C(=O)O)CC[C@]3(C)C(=CC[C@@H]4[C@@]5(C)CC[C@H](O)C(C)(C)[C@@H]5CC[C@]43C)[C@@H]2C1 [Oleanolic acid]
growth inhibition of S. aureus [5]: failed to inhibit | growth inhibition of E. coli [6]: failed to inhibit | growth inhibition of S. salivaris [7]: incomplete inhibition | growth inhibition of S. mutans [8]: incomplete inhibition | growth inhibition of P. aeruginosa [9]: failed to inhibit

C[C@@H]1CC[C@]2(C(=O)O)CC[C@]3(C)C(=CC[C@@H]4[C@@]5(C)C[C@@H](O)[C@H](O)C(C)(C)[C@@H]5CC[C@]43C)[C@@H]2[C@]1(C)O [Tormentic acid]
biofilm inhibition against P. aeruginosa relative to corosolic acid [1]: slightly reduces the biofilm inhibition

C[C@@H]1CC[C@]2(C(=O)O)CC[C@]3(C)C(=CCC4[C@@]5(C)CC[C@H](O)C(C)(C)C5CC[C@]43C)C2[C@H]1C (stereo partly shown) [Ursolic acid]
reduction in biofilm pods or IBCs in the bladders of mice [10]: 70% | growth inhibition of S. aureus [5]: failed to inhibit | growth inhibition of E. coli [6]: failed to inhibit | growth inhibition of S. salivaris [7]: completely inhibited | growth inhibition of S. mutans [8]: completely inhibited | reduced invasion of E. coli into bladder epithelial cells [11]: 76% | growth inhibition of P. aeruginosa [9]: failed to inhibit
